Results on one compound are retold here after PMC6689897, “Drugging an undruggable pocket on KRAS” (Proceedings of the National Academy of Sciences of the …, 2019).

One assay deals with GCP-KRASG12D (Homo sapiens, UniProt P01116, G12D). The experiment in a line: KD(HSQC) NMR. The format is binding. On the procedure: (§1) 80 difference spectrum. Mixtures of four fragments (each at 250 µM) were incubated in 25
(§2) 82 a mixture of GCP-KRASG12D and GDP-KRASG12V (each 4 µM). Binders were identified
(§3) 83 by comparing pre-recorded reference spectra with the STD difference spectrum.
(§4) 84 Deconvolution and confirmation of primary FBS hits obtained from STD-NMR and
(§5) 85 MST was performed using 2D 1H/15N TROSY NMR experiments(2) collected on a
(§6) 86 Bruker Avance III 600 MHz spectrometer equipped with a 5 mm z-gradient TCI cryo-
(§7) 87 probe. Samples were prepared directly before data acquisition using a Tecan Freedom
(§8) 88 Evo pipetting system and delivered by a Bruker Sample Rail to the magnet. Each sample
(§9) 89 contained either 50 µM 15N labeled GDP-KRASG12D or GCP-KRASG12D in 25 mM Tris-
(§10) 90 d11, 100 mM NaCl, 2 mM MgCl2, 0.5 mM TCEP pH 7.4 and 8% (v/v) D2O. Proteins […]
(§11) 92 d6DMSO. Spectra were recorded with 32 transients and 64 data points in the indirect […]
(§12) 100 support compound optimization. 1H/15N SoFast HMQC experiments(3) were recorded in […]
(§13) 102 recorded on a Avance III 700MHz spectrometer equipped with a cryogenically cooled […]
(§14) 107 DMSO. KDs were calculated from the differences in chemical shift induced by t he small […]
(§15) 109 dimension were calculated according to the following equation: […]
(§16) 120 (MicroCalTM, LLC Northampton, MA). Protein solutions were measured in 20 mM […]
(§17) 125 were analyzed with the MicroCal PEAQ-ITC analysis software package. […]

The target of a further assay is GDP-KRASG12D (Homo sapiens, UniProt P01116, G12D). Nature of the assay: KD(HSQC) NMR. The format is binding. Here is the method:
as §1, §2, §3, §4, §5, §6, §7, §8, §9, §10, §11, §12, §13, §14, §15, §16, §17

GDP-KRASG12D, sequence (P01116 1-169 isoform P01116-2 G12D): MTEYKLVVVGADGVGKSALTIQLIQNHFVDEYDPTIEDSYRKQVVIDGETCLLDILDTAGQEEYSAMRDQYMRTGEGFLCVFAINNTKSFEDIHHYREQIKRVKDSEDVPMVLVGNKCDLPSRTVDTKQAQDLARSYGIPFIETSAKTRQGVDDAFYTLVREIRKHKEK
GCP-KRASG12D, sequence (P01116 1-169 isoform P01116-2 G12D): as above

Consider `CN(C)Cc1[nH]c2ccccc2c1[C@H]1NC(=O)c2ccc(O)cc21` [Compound 18], for which the Kd at GCP-KRASG12D was determined as 17 µM; on GDP-KRASG12D, 16 µM.
